Experimental findings from US7081447B2, “Organic compounds with biological activity as thrombin inhibitors and use thereof” (Novel Science International GmbH, priority 2001, dated 2006) are described below.

Non-standard residues stand in square brackets, D forms with d. Residues, ends and D or L forms follow the SMILES beside them. Cha = N[CH](CC1CCCCC1)C(=O)O; Nle = CCCC[CH](N)C(=O)O; Orn = NCCC[CH](N)C(=O)O

For orientation: inhibition means the drop in the measured response relative to a control, in per cent. A high value points to strong suppression.

The target of this assay is thrombin (Homo sapiens, UniProt P00734). Briefly: in vitro inhibition of thrombin amidase activity (fluorogenic substrate Tos-Gly-Pro-Arg-(7-amino-4-methylcoumarin)). It counts as biochemical. Also on record: with 10 μL of human thrombin solution. To be noted: for inhibition at 25 µM: peptide concentration of 25 μM; for inhibition at 10 µM: peptide concentration of 10 μM. Here is the method:
(§1) The values of the inhibition constant Ki were obtained from assays, in which thrombin hydrolyzes the fluorogenic substrate Tos-Gly-Pro-Arg-(7-amino-4-methylcoumarin). The assays were performed in 30 μL of assay buffer (0.05 M Tris, 0.1 M NaCl, 0.1% PEG 8000, pH 7.6) with 10 μL of human thrombin solution (10^−5 U/μL in assay buffer) and 140 μL of a solution of the fluorogenic substrate in assay buffer at a concentration v of 30 μM. Solutions of the test compound (10 μL) were added at various concentrations. The rates of substrate hydrolysis were measured by monitoring the reactions of 7-amino-4-methylcoumarin release at 460 nm with use of AMC. The reaction reached a steady state within 3 minutes after thrombin was combined with the substrate and an inhibitor. The kinetic data of the competitive inhibition (Km, Vmax, and Ki) were analyzed with the aid of the Hanes plot (A/V vs. A at various i values).
as §1, with “concentration” for “concentration v”, “using” for “with the aid of”, “values for A; here, A is the substrate concentration and V the reaction rate).” for “i values).”
as §1, with “conducted” for “performed”, “concentration” for “concentration v”, “using” for “with the aid of”, “values for A; here, A is the substrate concentration and V the reaction rate).” for “i values).”

The mark [1] stands for this setting: peptide concentration of 250 nM.
Setting [2] is: peptide concentration of 1 μM, 1 µM.

As to “N-Acetyl-D-Phe-D-Cha-L-Aze-D-Tyr-L-Har amide [Example 77]”, under setting [1], the “Thrombin inhibition (thrombin amidase activity)” value (“Thrombin inhibition” for short) amounted to 77%.

For “N-Acetyl-L-Asp-L-Ser-L-Cha-D-Pro-D-Tyr-L-Arg amide [Example 10]”, the “Thrombin inhibition” value (peptide concentration of 1 μM) worked out at 51%. With “N-Acetyl-L-Ala-D-Cha-L-Pro-D-Tyr-L-Har amide [Example 56]”, under “peptide concentration of 1 μM”, the “Thrombin inhibition” value came out at 56%. “N-Acetyl-L-Ala-D-Cha-L-Aze-D-Tyr-L-Har amide [Example 76]”: the “Thrombin inhibition” value under setting [1] stood at 77%. With “N-Acetyl-D-Val-L-Cha-D-Pro-D-Tyr-L-Arg amide [Example 12]”, the “Thrombin inhibition” value under setting [2] is reported as 46%.

As to “N-Acetyl-L-Cha-D-Cha-L-Aze-D-Tyr-L-Har amide [Example 85]”, under setting [1], the “Thrombin inhibition” value was 90%.

“N-Acetyl-L-Ile-L-Arg-L-Cha-D-Pro-D-Tyr-L-Arg amide [Example 29]”: the “Thrombin inhibition” value (peptide concentration of 1 μM) was found to be 61%. The same measure, in the same setting: under “N-Acetyl-L-Ser-L-Cha-L-Cha-D-Pro-D-Tyr-L-Arg amide [Example 19]” stands 43%.

As to “N-Acetyl-L-Tea-D-Cha-L-Aze-D-Tyr-L-Har amide [Example 82]”, under setting [1], the “Thrombin inhibition” value amounted to 74%. The same measure, in the same setting: under “N-Acetyl-L-Iq3-D-Cha-L-Aze-D-Tyr-L-Har amide [Example 80]” stands 72%. Take “N-Acetyl-L-Ala-L-Cha-D-Pro-D-Tyr-L-Arg amide [Example 28]”: the “Thrombin inhibition” value (peptide concentration of 1 μM) was determined as 44%. Compound `[H]/N=C(\N)NCCCC(NC(C)=O)C(=O)NC(CC1CCCCC1)C(=O)NC(CC(=O)O)C(=O)NC(CC1CCCCC1)C(N)=O` [Example 2, N-Acetyl-L-Arg-L-Cha-L-Asp-L-Cha amide] registered an inhibition at 25 µM of 68%. `[H]/N=C(\N)NCCCC(NC(=O)C(Cc1ccc(O)cc1)NC(=O)C1CCCN1C(=O)C(CC1CCCCC1)NC(=O)C(CCCN/C(N)=N/[H])NC(C)=O)C(N)=O` [Example 5, N-Acetyl-L-Arg-L-Cha-D-Pro-D-Tyr-L-Arg amide] had an inhibition at 10 µM of 98%.

Take “N-Acetyl-L-Ser-L-Ala-L-Cha-D-Pro-D-Tyr-L-Arg amide [Example 49]”: the “Thrombin inhibition” value under setting [2] turned out to be 47%. `[H]/N=C(\N)NCCCC(NC(C)=O)C(=O)NC(CC1CCCCC1)C(=O)NC(CCCC)C(=O)NC(CC1CCCCC1)C(=O)NC(CCC(N)=O)C(N)=O` [Example 1, N-Acetyl-L-Arg-L-Cha-L-Nle-L-Cha-D-Gln amide] showed an inhibition at 25 µM of 66%. As for “N-Acetyl-D-Lys-L-Nle-L-Cha-D-Pro-D-Tyr-L-Arg amide [Example 51]”, the “Thrombin inhibition” value under setting [2] came to 48%. In the case of “N-Acetyl-L-Ser-L-Ser-L-Cha-D-Pro-D-Tyr-L-Arg amide [Example 31]”, under setting [2], the “Thrombin inhibition” value came to 40%. On to “N-Acetyl-L-Ser-L-Ala-L-Cha-D-Pro-D-Tyr-L-Arg amide [Example 67]”, for which, under setting [2], the “Thrombin inhibition” value amounted to 47%. Turning to “N-Acetyl-L-Ser-L-Ala-L-Cha-D-Pro-D-Tyr-L-Arg amide [Example 34]”, under setting [2], the “Thrombin inhibition” value is given as 47%. As for “N-Acetyl-L-Arg-L-Cha-D-Pro-D-Tyr-L-Arg amide [Example 38]”, the “Thrombin inhibition” value under setting [2] stood at 47%. On to “N-Acetyl-L-Arg-L-Cha-D-Pro-D-Tyr-L-Arg amide [Example 53]”, for which the “Thrombin inhibition” value under setting [2] was found to be 47%. “N-Acetyl-D-Val-L-Cha-D-Pro-D-Tyr-L-Arg amide [Example 47]”: the “Thrombin inhibition” value under setting [2] is reported as 45%. For `CCCCC(NC(=O)C(CC1CCCCC1)NC(=O)C(CCCNC(=N)N)NC(C)=O)C(=O)NC(CC1CCCCC1)C(=O)NC(CCC(=O)O)C(N)=O` [Example 8, N-Acetyl-L-Arg-L-Cha-L-Nle-L-Cha-D-Glu amide] (Ac-R[Cha][Nle][Cha]E-NH2; configuration not given here), the inhibition at 1 µM (peptide concentration of 1 μM) came out at 35%. Consider “N-Acetyl-L-Ser-L-Arg-L-Cha-D-Pro-D-Tyr-L-Arg amide [Example 35]”, for which, under setting [2], the “Thrombin inhibition” value is listed as 51%.

As for `[H]/N=C(\N)NCCCC(NC(C)=O)C(=O)NC(CC1CCCCC1)C(=O)NC(CC1CCCCC1)C(=O)NC(CC1CCCCC1)C(=O)NC(CCCN)C(N)=O` [Example 6, N-Acetyl-L-Arg-L-Cha-L-Cha-L-Cha-L-Orn amide], the inhibition at 10 µM came out at 71%. For “N-Acetyl-L-Ppd-D-Cha-L-Aze-D-Tyr-L-Har amide [Example 81]”, the “Thrombin inhibition” value under setting [1] stood at 76%. As for “N-Acetyl-L-Tyr-L-Cit-L-Cha-D-Pro-D-Tyr-L-Arg amide [Example 15]”, under setting [2], the “Thrombin inhibition” value was found to be 51%. For the compound “N-Acetyl-L-Ser-D-Glu-L-Cha-D-Pro-D-Tyr-L-Arg amide [Example 23]”, where the note is “peptide concentration of 1 μM”, the “Thrombin inhibition” value is listed as 21%. Same read-out and setting: under “N-Acetyl-L-Ala-D-Cha-L-Aze-D-Tyr-L-Har amide [Example 57]” stands 83%. On to “N-Acetyl-L-Tyr-L-Cit-L-Cha-D-Pro-D-Tyr-L-Arg amide [Example 30]”, for which the “Thrombin inhibition” value under setting [2] is recorded as 55%. Take `CCCCC(NC(=O)C(CC1CCCCC1)NC(=O)C(CCCNC(=N)N)NC(C)=O)C(=O)NC(CC1CCCCC1)C(=O)NC(CCCN)C(N)=O` [Example 3, N-Acetyl-L-Arg-L-Cha-L-Nle-L-Cha-L-Orn amide] (Ac-R[Cha][Nle][Cha][Orn]-NH2; configuration not given here): the inhibition at 10 µM came to 63%. Consider “N-Acetyl-D-Tyr-L-Cha-D-Pro-D-Tyr-L-Arg amide [Example 37]”, for which the “Thrombin inhibition” value under setting [2] came to 47%. Turning to “N-Acetyl-L-Arg-L-Cha-D-Pro-D-Tyr-L-Arg amide [Example 21]”, the “Thrombin inhibition” value under setting [2] came out at 38%. The same measure, in the same setting: under “N-Acetyl-D-Lys-L-Nle-L-Cha-D-Pro-D-Tyr-L-Arg amide [Example 69]” stands 48%. In the case of “N-Acetyl-L-Pnp-D-Cha-L-Aze-D-Tyr-L-Har amide [Example 86]”, the “Thrombin inhibition” value under setting [1] turned out to be 72%. As for “N-Acetyl-D-Lys-D-Pro-L-Cha-D-Pro-D-Tyr-L-Arg amide [Example 14]”, the “Thrombin inhibition” value (peptide concentration of 1 μM) is 53%. The same measure, in the same setting: as for “N-Acetyl-L-Ser-L-Cha-D-Pro-D-Tyr-L-Arg amide [Example 22]”, the figure is 31%. As to “N-Acetyl-L-Ser-L-Ala-L-Cha-D-Pro-D-Tyr-L-Arg amide [Example 17]”, the “Thrombin inhibition” value under setting [2] came to 48%. Still for that read-out and setting: as for “N-Acetyl-L-Tyr-L-Cit-L-Cha-D-Pro-D-Tyr-L-Arg amide [Example 45]”, the figure is 55%. In the case of “N-Acetyl-L-Ser-D-Val-L-Cha-D-Pro-D-Tyr-L-Arg amide [Example 16]”, under “peptide concentration of 1 μM”, the “Thrombin inhibition” value was found to be 48%. Regarding “N-Acetyl-D-Lys-L-Nle-L-Cha-D-Pro-D-Tyr-L-Arg amide [Example 36]”, the “Thrombin inhibition” value under setting [2] is reported as 48%. The same measure, in the same setting: under “N-Acetyl-L-Tyr-L-Cit-L-Cha-D-Pro-D-Tyr-L-Arg amide [Example 63]” stands 55%. Same read-out and setting: as for “N-Acetyl-D-Tyr-L-Cha-D-Pro-D-Tyr-L-Arg amide [Example 70]”, the figure is 47%. For the compound “N-Acetyl-L-Nhm-D-Cha-L-Aze-D-Tyr-L-Har amide [Example 79]”, the “Thrombin inhibition” value under setting [1] was determined as 80%.

As for “N-Acetyl-D-Tyr-L-Cha-D-Pro-D-Tyr-L-Arg amide [Example 24]”, the “Thrombin inhibition” value under setting [2] worked out at 27%. On the same count and under the same terms, under “N-Acetyl-L-Arg-L-Cha-D-Pro-D-Tyr-L-Arg amide [Example 71]” stands 47%. On to “N-Acetyl-D-Glu-L-Cha-D-Pro-D-Tyr-L-Arg amide [Example 26]”, for which the “Thrombin inhibition” value (peptide concentration of 1 μM) was 58%. The same measure, in the same setting: under “N-Acetyl-D-Val-L-Ala-L-Cha-D-Pro-D-Tyr-L-Arg amide [Example 9]” stands 53%. Regarding “N-Acetyl-L-Ser-L-Arg-L-Cha-D-Pro-D-Tyr-L-Arg amide [Example 18]”, the “Thrombin inhibition” value under setting [2] is reported as 67%.
